Laboratory results: US10155754B2, “Substituted 2-imino-1,3-thiazolidin-4-ones as N-arachidonoylethanolamine cellular uptake inhibitors” (UNIVERSITAT BERN, priority 2014, dated 2018)

How the values were obtained:
FAAH = target: T1, FAAH (Homo sapiens, UniProt O00519); assay: FAAH activity: hydrolysis of [3H]-AEA in U937 cell homogenates; assay type: biochemical; settings: [3H]-AEA hydrolysis, final 100 nM AEA, read-out: FAAH inhibition IC50
T1 construct: endogenous in cells; host or cells: U937 cell homogenate
T1 sequence (O00519 1-579): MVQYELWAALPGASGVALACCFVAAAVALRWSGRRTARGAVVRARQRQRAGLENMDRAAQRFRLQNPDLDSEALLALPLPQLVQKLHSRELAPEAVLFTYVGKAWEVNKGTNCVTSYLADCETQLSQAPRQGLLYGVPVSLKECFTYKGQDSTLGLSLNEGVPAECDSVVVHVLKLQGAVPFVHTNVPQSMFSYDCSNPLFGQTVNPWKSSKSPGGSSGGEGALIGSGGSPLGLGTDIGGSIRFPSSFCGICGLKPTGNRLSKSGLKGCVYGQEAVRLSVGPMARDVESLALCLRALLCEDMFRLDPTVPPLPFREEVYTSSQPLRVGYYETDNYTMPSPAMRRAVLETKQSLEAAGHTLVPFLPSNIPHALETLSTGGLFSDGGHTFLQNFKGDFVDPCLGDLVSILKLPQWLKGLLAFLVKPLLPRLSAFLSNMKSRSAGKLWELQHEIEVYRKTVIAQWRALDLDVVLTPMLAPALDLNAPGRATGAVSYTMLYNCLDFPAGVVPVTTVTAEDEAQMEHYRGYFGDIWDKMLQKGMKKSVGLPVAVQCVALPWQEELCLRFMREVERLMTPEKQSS
Method: Hydrolysis of [^3H]-AEA by FAAH was determined as previously described in cell homogenates of U937 cells (0.18 mg protein) (Omeir et al., 1999, Biochem Biophys Res Commun, 264, 316-20; Mor et al., 2004, J Med Chem, 47, 4998-5008). Protein amounts of cell homogenates corresponded to 0.5×10^6 cells (U937), to assure best possible comparability of IC50 values as used for the AEA cellular uptake assays. URB597 was used as positive control. Protein quantification was performed using a BCA assay (Thermo Scientific). Enzyme activity was assessed by addition of vehicle or compounds in 10 μL DMSO to 490 μL homogenate in 10 mM Tris HCl, 1 mM EDTA, 0.1% (w/v) BSA fatty acid free, pH=8 and incubation for 15 min at 37° C. After, a mixture of AEA plus [ethanolamine-1-^3H]-AEA (0.5 nM) at final 100 nM was added to the homogenates and incubated for 15 min at 37° C. The reaction was stopped by addition of 1 mL ice-cold CHCl3:MeOH (1:1) followed by vigorous vortexing. Phase separation was achieved by centrifugation at 10'000×g at 4° C. for 10 min. Radioactivity of the separated aqueous phase (upper phase) containing [^3H-ethanolamine] or [^3H-glycerol] was measured by liquid scintillation counting on a Tri-Carb 2100 TR liquid scintillation analyzer after addition of 3.5 mL Ultima Gold scintillation cocktail (PerkinElmer Life Sciences). Results are expressed as hydrolysis of tritium substrate in percent of vehicle treated control. IC50 values were calculated by GraphPad®. Data are reported as means of n=3 independent experiments performed in triplicates.

[1] = system: AEA cellular uptake (U937 cells); assay: [3H]-AEA cellular uptake inhibition in U937 cells; assay type: cell-based; settings: Homo sapiens, U-937, U937 cells, final 100 nM AEA with 0.5 nM [3H]-AEA, 15 min at 37° C.; read-out: AEA uptake IC50
In short: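 U937 cells (0.5×10^6 per sample) pre-incubated with compound (100 pM–100 μM, triplicates) for 15 min at 37 °C, then given 100 nM AEA including 0.5 nM [3H]-AEA for 15 min. Filtration, washing and scintillation counting of cell-associated radioactivity; IC50 by four-parameter nonlinear regression.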

IC50 (FAAH): > 100000 nM | IC50 [1]: 479 nM
Compound: CC(C)CN1C(=O)/C(=C/c2ccc3[nH]ccc3c2)S/C1=N\c1ccc(F)cc1 [03_B_X, (2Z,5Z)-5-((1H-indol-5-yl)methylene)-2-(4-fluorophenylimino)-3-isobutylthiazolidin-4-one]
